Here are results for 24 molecules from US9067898B1, “Isothiazole derivatives as GPR120 agonists for the treatment of type II diabetes” (Janssen Pharmaceutica NV, priority 2014, dated 2015).

This experiment has as its target T1, Human GPR120 short form (Homo sapiens, UniProt Q5NUL3).
T1 construct: expressed in transfected cells
T1 sequence (Q5NUL3 1-361): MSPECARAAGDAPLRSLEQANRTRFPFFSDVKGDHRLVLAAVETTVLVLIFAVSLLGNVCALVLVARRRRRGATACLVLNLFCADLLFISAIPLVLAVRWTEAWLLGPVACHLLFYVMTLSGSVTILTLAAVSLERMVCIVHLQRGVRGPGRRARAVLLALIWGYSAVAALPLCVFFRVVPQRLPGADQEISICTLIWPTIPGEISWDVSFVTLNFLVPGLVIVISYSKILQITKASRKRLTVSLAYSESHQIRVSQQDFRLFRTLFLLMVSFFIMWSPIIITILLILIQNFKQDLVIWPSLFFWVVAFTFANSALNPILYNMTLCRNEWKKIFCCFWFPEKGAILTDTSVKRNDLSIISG
The experiment in a line: Human GPR120 calcium flux assay (FLIPR), Procedure Calcium A. The class given is cell-based. To be noted: HEK-293 cells expressing human GPR120 short form, 2500 cells/well; read-out: GPR120 Ca2+ Assay A EC50. From the text:
This in vitro assay serves to assess test compound agonist activity against the short splice variant (SVS with Accession number NM_001195755.1 confirmed by sequencing data) of the GPR120 receptor. The Human Short splice variant #2 (NM_001195755.1) is missing an in-frame coding exon compared to variant 1 (the Human Long splice variant NM_181745.3), resulting in a shorter isoform (GPR120-S) lacking a 16 aa protein segment compared to isoform GPR120-L. The assay platform utilizes HEK-293 cells stably transfected to express the Human GPR120 short form. These cells are first loaded with the Ca^+2 sensitive dye, Fluo-4 NW. Upon stimulation, intracellular released Ca^+2 can bind to the dye and alter its fluorescence intensity. This increase in fluorescence signal, and thus the flux in intracellular [Ca^2+], is detected and quantitated by fluorescence imaging using a FLIPR reader. The effect of the agonist is measured as a function of concentration and used to calculate an EC50 based upon a response curve.
In this procedure 2500 cells/well were employed.
A Human GPR120 clone (Genbank accession number NM_001195755.1) was placed into the pcDNA3.1 mammalian expression vector carrying the neomycin resistance gene. A stable mammalian cell was generated by placing the above clone into a HEK293 background. Clonal cells responding to long chain fatty acids had expression levels of GPR120 confirmed by RT-qPCR. Human HEK-GPR120 cells were cultured in Dulbecco's Modified Eagle's Medium (DMEM)/F12 medium supplemented with 10% fetal bovine serum (FBS), 1% L-Glutamine and 1% penicillin/streptomycin and 0.5 mg/ml G-418. Cells were split 2 times a week to keep the cells in the log-phase growth.
In preparation for the assay, HEK cells stably transfected with Human GPR120 (2.5K cells per well in 25 uL growth medium) were seeded into 384-well plates and then incubated overnight (37° C., 5% CO2). The next day, the media was changed to 20 μL assay buffer and the cell starved for 1 h at 37° C. The dye loading solution (2× dye) was prepared using 10 mL assay buffer, 100 μL of 250 mM probenecid, 1 bottle of Component A, and 20 μl of dye in DMSO. Twenty μL of the 2× dye loading buffer was then added to each well. The plates were incubated at 37° C. for 30 min, then at room temperature for an additional 15 minutes, before performing the assay on FLIPR. Test compounds were prepared in assay buffer (2 uL of cpd+198 uL assay buffer, final DMSO in assay plate is 0.2%) at the desired concentration, more particularly at 100, 50, 25, 12.5, 6.25, 3.125, 1.562, 0.781, 0.391, 0.195, 0.098, 0.049, 0.024 and 0.012 μM.
The assay was performed on a FLIPR plate reader using the following parameters. Baseline was read for 10 seconds at 1 sec intervals. The program was set to transfer 10 μL of ligand from compound plate to cell plate after baseline reading. Aspiration was executed at: 10 μL/sec speed, 4.6 μL height; Dispensing was executed at: 30 μL/sec speed, 45 μL height. After compound addition, each well was read for 300 sec, with measurements collected at 1 sec intervals.
The kinetic data from the FLIPR was based upon a 5 minute window for data collection. The fluorescence of each sample well was used for individual calculations of a normalized RFU value, which was defined as maximum response minus the minimum response. The normalized fluorescence reading (RFU) was calculated as follows: RFU=Fmax−Fmin The data were fitted to a sigmoidal dose-response curve with a variable Hill slope (<2) using nonlinear regression with GraphPad Prism 5.0 to calculate the EC50 values. The Fitting Equation was: Y=Bottom+(Top−Bottom)/(1+10^((Log EC50−X)*HillSlope)), where X is the log of the concentration and Y is the response.
Background: Calcium flux is commonly read through the fluorescence of an indicator in the cells.
With `Cc1c(CCC(=O)O)ccc(OCc2sc(Cl)cc2-c2ccc(Cl)cc2)c1C` [Cpd 6, 3-(4-[[5-chloro-3-(4-chlorophenyl)thiophen-2-yl]methoxy]-2,3-dimethylphenyl) propanoic acid], the EC50 amounted to 90 nM.
Turning to `O=C(O)CCc1cc(F)c(OCc2sc(Cl)cc2-c2ccc(Cl)cc2)c(F)c1` [Cpd 10, 3-(4-[[5-chloro-3-(4-chlorophenyl)thiophen-2-yl]methoxy]-3,5-difluorophenyl)propanoic acid], the EC50 is 123 nM.
With `Cc1c(CCCO)ccc(OCc2sc(Cl)cc2-c2ccc(Cl)cc2)c1C` [Cpd 15, 3-(4-[[5-chloro-3-(4-chlorophenyl)thiophen-2-yl]methoxy]-2,3-dimethylphenyl)propan-1-ol], the EC50 turned out to be 266 nM.
In the case of `CCc1ccc(-c2cc(F)sc2COc2ccc(CCCO)c(F)c2F)cc1` [Cpd 17, 3-(4-[[3-(4-ethylphenyl)-5-fluorothiophen-2-yl]methoxy]-2,3-difluorophenyl)propan-1-ol], the EC50 was 406 nM.
`OCCCc1cc(F)c(OCc2sc(F)cc2-c2ccc(Cl)cc2)c(F)c1` [Cpd 18, 3-(4-[[3-(4-chlorophenyl)-5-fluorothiophen-2-yl]methoxy]-3,5-difluorophenyl)propan-1-ol]: the EC50 was determined as 518 nM.
On to `CCc1ccc(-c2cc(C(F)(F)F)sc2COc2ccc(CCC(=O)O)c(F)c2F)cc1` [Cpd 21, 3-(4-((3-(4-ethylphenyl)-5-(trifluoromethyl)thiophen-2-yl)methoxy)-2,3-difluorophenyl)propanoic acid], for which the EC50 amounted to 788 nM.
Take `CCc1ccc(-c2cc(C(F)(F)F)sc2COc2c(F)cc(CCC(=O)O)cc2F)cc1` [Cpd 22, 3-(4-((3-(4-ethylphenyl)-5-(trifluoromethyl)thiophen-2-yl)methoxy)-3,5-difluorophenyl)propanoic acid]: the EC50 was found to be 924 nM.
As to `Cc1ccc(-c2csc(C(F)(F)F)c2COc2c(F)cc(CCCO)cc2F)cn1` [Cpd 36, 3-(3,5-difluoro-4-((4-(6-methylpyridin-3-yl)-2-(trifluoromethyl)thiophen-3-yl)methoxy)phenyl)propan-1-61], the EC50 worked out at 90 nM.
Regarding `O=C(O)CCc1ccc(OCc2c(-c3ccc(Cl)cc3)csc2C(F)(F)F)c(F)c1F` [Cpd 47, 3-(4-((4-(4-chlorophenyl)-2-(trifluoromethyl)thiophen-3-yl)methoxy)-2,3-difluorophenyl)propanoic acid], the EC50 is 166 nM.
For the molecule `CCc1ccc(-c2csc(C(F)(F)F)c2COc2ccc(CCC(=O)O)c(C)c2C)cc1` [Cpd 54, 3-(4-((4-(4-ethylphenyl)-2-(trifluoromethyl)thiophen-3-yl)methoxy)-2,3-dimethylphenyl)propanoic acid], the EC50 is 199 nM.
Under `Cc1c(CCC(=O)O)ccc(OCc2c(-c3ccc(Cl)cc3)csc2C(F)(F)F)c1C` [Cpd 57, 3-(4-((4-(4-chlorophenyl)-2-(trifluoromethyl)thiophen-3-yl)methoxy)-2,3-dimethylphenyl)propanoic acid] stands 278 nM; under `Cc1c(CCC(=O)O)ccc(OCc2c(-c3ccc(Cl)cc3F)csc2C(F)(F)F)c1C` [Cpd 59, 3-(4-((4-(4-chloro-2-fluorophenyl)-2-(trifluoromethyl)thiophen-3-yl)methoxy)-2,3-dimethylphenyl)propanoic acid], 348 nM.
For `COc1ccc(-c2csc(C(F)(F)F)c2COc2ccc(CCC(=O)O)c(C)c2C)cc1` [Cpd 60, 3-(4-((4-(4-methoxyphenyl)-2-(trifluoromethyl)thiophen-3-yl)methoxy)-2,3-dimethylphenyl)propanoic acid], the EC50 came out at 510 nM.
Take `CCc1ccc(-c2sc(C)c(C(F)(F)F)c2COc2ccc(CCC(=O)O)c(C)c2C)cc1` [Cpd 61, 3-(4-[[2-(4-ethylphenyl)-5-methyl-4-(trifluoromethyl)thiophen-3-yl]methoxy]-2,3-dimethylphenyl) propanoic acid]: the EC50 worked out at 564 nM.
With `Cc1ccc(-c2csc(C(F)(F)F)c2COc2c(F)cc(CCC(=O)O)cc2F)cn1` [Cpd 62, 3-(3,5-difluoro-4-((4-(6-methylpyridin-3-yl)-2-(trifluoromethyl)thiophen-3-yl)methoxy)phenyl)propanoic acid], the EC50 was 747 nM.
As for `O=C(O)CCc1ccc(OCc2c(-c3ccc(Cl)cc3)nsc2C(F)(F)F)c(F)c1` [Cpd 68, 3-(4-[[3-(4-chlorophenyl)-5-(trifluoromethyl)-1,2-thiazol-4-yl]methoxy]-3-fluorophenyl)propanoic acid], the EC50 turned out to be 28 nM.
`CCc1ccc(-c2nsc(C(F)(F)F)c2COc2ccc(CCC(=O)O)c3sccc23)cc1` [Cpd 92, 3-(4-[[3-(4-ethylphenyl)-5-(trifluoromethyl)-1,2-thiazol-4-yl]methoxy]-1-benzothiophen-7-yl)propanoic acid]: the EC50 worked out at 70 nM.
The same measure for `CCc1ccc(-c2nsc(C(F)(F)F)c2COc2ccc(CCC(=O)O)c3c2CCC3)cc1` [Cpd 103, 3-(7-[[3-(4-ethylphenyl)-5-(trifluoromethyl)-1,2-thiazol-4-yl]methoxy]-2,3-dihydro-1H-inden-4-yl)propanoic acid]: 80 nM; for `Cc1c(CCC(=O)O)ccc(OCc2c(Cl)nsc2-c2ccc(C(F)(F)F)cc2)c1C` [Cpd 112, 3-[4-([3-chloro-5-[4-(trifluoromethyl)phenyl]-1,2-thiazol-4-yl]methoxy)-2,3-dimethylphenyl]propanoic acid]: 99 nM; for `CCc1ccc(-c2snc(Cl)c2COc2c(F)cc(CCC(=O)O)cc2F)cc1` [Cpd 124, 3-(4-[[3-chloro-5-(4-ethylphenyl)-1,2-thiazol-4-yl]methoxy]-3,5-difluorophenyl)propanoic acid]: 114 nM.
In the case of `Cc1cc(OCc2c(-c3ccc(Cl)cc3)nsc2C(F)(F)F)c(F)cc1CCC(=O)O` [Cpd 125, 3-(4-((3-(4-chlorophenyl)-5-(trifluoromethyl)isothiazol-4-yl)methoxy)-5-fluoro-2-methylphenyl)propanoic acid], the EC50 worked out at 121 nM.
With `CCc1ccc(-c2nsc(C(F)(F)F)c2COc2ccc(CCC(=O)O)c3ccccc23)cc1` [Cpd 130, 3-(4-[[3-(4-ethylphenyl)-5-(trifluoromethyl)-1,2-thiazol-4-yl]methoxy]naphthalen-1-yl)propanoic acid], the EC50 was found to be 125 nM.
Turning to `CC(=O)c1ccc(-c2nsc(C(F)(F)F)c2COc2c(F)cc(CCC(=O)O)cc2F)cc1` [Cpd 131, 3-(4-[[3-(4-acetylphenyl)-5-(trifluoromethyl)-1,2-thiazol-4-yl]methoxy]-3,5-difluorophenyl) propanoic acid], the EC50 was determined as 129 nM.
As for `COc1cc(-c2nsc(C(F)(F)F)c2COc2ccc(CCC(=O)O)c(C)c2C)ccc1Cl` [Cpd 144, 3-(4-((3-(4-chloro-3-methoxyphenyl)-5-(trifluoromethyl)isothiazol-4-yl)methoxy)-2,3-dimethylphenyl)propanoic acid], the EC50 was found to be 160 nM.

Usually EC50 stands for the midpoint of the concentration-response curve.
